The record followed here is patent publication US20210032257A1, “(E)-1-(4-(DIMETHYLAMINO)BUT-2-ENOYL)PYRROLIDIN-3-YL 4-((3-ISOPROPYL-5-METHYLPYRAZOLO[1,5-A]PYRIMIDIN-7-YL)AMINO)PIPERIDINE-1-CARBOXYLATE FOR INHIBITING CDK7” (Eli Lilly and Company, priority 2017, published 2021).

For one experiment, the target named is CDK7/CyclinH/Mat1 (Homo sapiens, UniProt P50613). Put plainly: Biochemical assay for inhibition of CDK7/CyclinH/MAT1 (radiolabel filter binding).
For the next experiment, the target named is CDK9/cyclinT1 (Homo sapiens, UniProt P50750). Put plainly: Assay for inhibition of CDK9/CyclinT1 kinase activity (radiolabel filter binding).
A further experiment concerns the target T1, CDK12/CycK (Homo sapiens, UniProt Q9NYV4).
T1 construct: purchased ProQinase
Put plainly: ProQinase radiometric protein kinase assay, 10 concentrations. Format: biochemical. The following applies: kinase 14.7 nM, ATP 0.3 μM. Here is the method: (§1) A radiometric protein kinase assay (33PANQINASE® Activity Assay, ProQinase) is used for measuring the kinase activity of the 320 protein kinases. All kinase assays are performed in 96-well FLASHPLATES™ in a 50 μL reaction volume. The reaction cocktail is pipetted in 4 steps in the following order:
(§2) All PKC assays (except the PKC-mu and the PKC-nu assay) additionally contain 1 mM CaCl2). 4 mM EDTA, 5 μg/mL Phosphatidylserine and 1 μg/mL 1,2-Dioleyl-glycerol. The CAMK1D, CAMK2A, CAMK2B, CAMK2D, CAMK2G, CAMK4, CAMKK1, CAMKK2, DAPK2, EEF2K, MYLK, MYLK2 and MYLK3 assays additionally contain 1 μg/mL Calmodulin and 0.5 mM CaCl2). The PRKG1 and PRKG2 assays additionally contain 1 μM cGMP. The DNA-PK assay additionally contained 2.5 μg/mL DNA.
(§3) The protein kinase reaction cocktails are incubated at 30° C. for 60 minutes. […] Kinases from external vendors (CAR=Carna Biosciences Inc.; INV=Life Technologies (Invitrogen Corporation™); MIL=Merck-Millipore (Millipore Corporation™), see Table 1) are expressed, purified and quality-controlled by virtue of the vendors readings.
(§4) CDK12 and CDK13 (ProQinase) are tested essentially as above but separately at 10 concentrations ([…] to […]) using semi-logarithmic dilutions. For the 10 points, the analysis the residual activities for each concentration and the compound IC50 values are calculated using QUATTRO® WORKFLOW™ V3.1.1. […]

For the next experiment, the target named is T2, CDK13/CycK (Homo sapiens, UniProt Q14004).
T2 construct: purchased ProQinase
The experiment is described as above. Type of experiment: biochemical. The conditions noted are these: kinase 29.2 nM, ATP 0.3 μM. Here is the method:
as §1, §2, §3, §4

In a further experiment the test system is DMS114. Put plainly: Biomarker study proliferation (CellTiter-Glo). Type of experiment: cell-based. The method, boiled down:
(§5)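 7-day growth assay: 5000 cells/well, overnight attachment, 10-pt 1:3 dose series diluted via OPTIMEM + 10% FBS. Staurosporine 5 μM final = max inhibition. Readout CellTiter-Glo luminescence after 15 min RT.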
In general terms: Cellular ATP, detected with luciferase, serves as a proxy for viable cell number.

A further experiment has as its system NCIH460. Put plainly: Biomarker study proliferation (CellTiter-Glo). Format: cell-based. The method in brief:
as §5

In the next experiment the test system is SW1271. Put plainly: Biomarker study proliferation (CellTiter-Glo). Type of experiment: cell-based. The method, boiled down:
as §5

The test system of a further experiment is LI7. The experiment is described as follows: Biomarker study proliferation (CellTiter-Glo). Type of experiment: cell-based. The method, boiled down: as §5

Chain of CDK7/CyclinH/Mat1 (P50613 whole entry): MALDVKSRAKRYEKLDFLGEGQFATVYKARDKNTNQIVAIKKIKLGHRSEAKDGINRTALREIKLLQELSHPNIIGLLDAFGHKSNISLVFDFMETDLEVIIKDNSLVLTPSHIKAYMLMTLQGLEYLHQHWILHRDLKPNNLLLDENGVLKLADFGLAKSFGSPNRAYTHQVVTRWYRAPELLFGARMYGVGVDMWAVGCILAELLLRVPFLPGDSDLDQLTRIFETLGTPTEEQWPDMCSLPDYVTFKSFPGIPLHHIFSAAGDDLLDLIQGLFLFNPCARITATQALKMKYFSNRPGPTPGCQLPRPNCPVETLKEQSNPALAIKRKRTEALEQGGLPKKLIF
Chain of CDK7/CyclinH/Mat1 (P51946 whole entry partner): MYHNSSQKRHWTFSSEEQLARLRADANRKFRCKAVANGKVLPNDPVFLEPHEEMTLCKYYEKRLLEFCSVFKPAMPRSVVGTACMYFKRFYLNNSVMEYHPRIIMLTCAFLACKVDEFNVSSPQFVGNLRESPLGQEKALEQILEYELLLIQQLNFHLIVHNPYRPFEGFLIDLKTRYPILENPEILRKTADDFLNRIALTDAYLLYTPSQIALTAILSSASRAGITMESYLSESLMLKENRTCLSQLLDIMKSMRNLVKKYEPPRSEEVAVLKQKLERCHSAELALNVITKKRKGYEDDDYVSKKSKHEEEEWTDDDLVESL
Chain of CDK7/CyclinH/Mat1 (P51948 whole entry partner): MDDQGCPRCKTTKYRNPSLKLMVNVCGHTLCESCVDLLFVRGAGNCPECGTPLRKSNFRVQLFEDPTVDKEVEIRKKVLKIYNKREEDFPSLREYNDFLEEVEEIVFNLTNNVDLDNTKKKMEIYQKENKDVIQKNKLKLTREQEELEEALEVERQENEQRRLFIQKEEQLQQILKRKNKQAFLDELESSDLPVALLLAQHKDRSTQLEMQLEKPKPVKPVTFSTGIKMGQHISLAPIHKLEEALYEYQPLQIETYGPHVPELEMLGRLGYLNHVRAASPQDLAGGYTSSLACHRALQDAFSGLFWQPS
Chain of CDK9/cyclinT1 (P50750 whole entry): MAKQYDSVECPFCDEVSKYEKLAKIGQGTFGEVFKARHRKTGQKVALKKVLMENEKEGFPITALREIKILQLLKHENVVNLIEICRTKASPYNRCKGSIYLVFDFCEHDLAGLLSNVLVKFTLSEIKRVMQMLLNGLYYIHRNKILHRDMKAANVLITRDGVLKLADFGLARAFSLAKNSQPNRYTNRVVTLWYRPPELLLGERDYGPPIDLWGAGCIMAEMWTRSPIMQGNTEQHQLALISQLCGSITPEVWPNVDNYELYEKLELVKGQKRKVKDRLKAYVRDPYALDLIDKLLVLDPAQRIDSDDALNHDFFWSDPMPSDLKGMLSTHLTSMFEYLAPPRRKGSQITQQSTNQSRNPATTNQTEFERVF
Chain of CDK9/cyclinT1 (O60563 whole entry partner): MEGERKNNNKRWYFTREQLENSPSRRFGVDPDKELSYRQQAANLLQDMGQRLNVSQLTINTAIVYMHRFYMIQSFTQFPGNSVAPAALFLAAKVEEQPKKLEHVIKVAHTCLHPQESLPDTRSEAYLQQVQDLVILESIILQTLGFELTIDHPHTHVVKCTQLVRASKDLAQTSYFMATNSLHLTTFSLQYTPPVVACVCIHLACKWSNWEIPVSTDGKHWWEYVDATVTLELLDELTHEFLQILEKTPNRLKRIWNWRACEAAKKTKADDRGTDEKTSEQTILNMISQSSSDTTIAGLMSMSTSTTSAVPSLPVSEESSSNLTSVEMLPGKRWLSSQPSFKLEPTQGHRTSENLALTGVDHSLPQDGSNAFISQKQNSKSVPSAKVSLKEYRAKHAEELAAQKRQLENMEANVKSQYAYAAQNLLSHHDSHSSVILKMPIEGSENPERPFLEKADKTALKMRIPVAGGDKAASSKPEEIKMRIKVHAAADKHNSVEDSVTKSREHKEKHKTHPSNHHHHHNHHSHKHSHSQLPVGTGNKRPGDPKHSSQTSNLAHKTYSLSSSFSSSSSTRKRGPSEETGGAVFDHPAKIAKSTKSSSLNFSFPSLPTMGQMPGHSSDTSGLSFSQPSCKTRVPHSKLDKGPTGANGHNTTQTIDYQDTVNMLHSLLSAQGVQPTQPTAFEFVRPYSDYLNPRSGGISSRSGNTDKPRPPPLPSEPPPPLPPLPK
T1 sequence (Q9NYV4 whole entry): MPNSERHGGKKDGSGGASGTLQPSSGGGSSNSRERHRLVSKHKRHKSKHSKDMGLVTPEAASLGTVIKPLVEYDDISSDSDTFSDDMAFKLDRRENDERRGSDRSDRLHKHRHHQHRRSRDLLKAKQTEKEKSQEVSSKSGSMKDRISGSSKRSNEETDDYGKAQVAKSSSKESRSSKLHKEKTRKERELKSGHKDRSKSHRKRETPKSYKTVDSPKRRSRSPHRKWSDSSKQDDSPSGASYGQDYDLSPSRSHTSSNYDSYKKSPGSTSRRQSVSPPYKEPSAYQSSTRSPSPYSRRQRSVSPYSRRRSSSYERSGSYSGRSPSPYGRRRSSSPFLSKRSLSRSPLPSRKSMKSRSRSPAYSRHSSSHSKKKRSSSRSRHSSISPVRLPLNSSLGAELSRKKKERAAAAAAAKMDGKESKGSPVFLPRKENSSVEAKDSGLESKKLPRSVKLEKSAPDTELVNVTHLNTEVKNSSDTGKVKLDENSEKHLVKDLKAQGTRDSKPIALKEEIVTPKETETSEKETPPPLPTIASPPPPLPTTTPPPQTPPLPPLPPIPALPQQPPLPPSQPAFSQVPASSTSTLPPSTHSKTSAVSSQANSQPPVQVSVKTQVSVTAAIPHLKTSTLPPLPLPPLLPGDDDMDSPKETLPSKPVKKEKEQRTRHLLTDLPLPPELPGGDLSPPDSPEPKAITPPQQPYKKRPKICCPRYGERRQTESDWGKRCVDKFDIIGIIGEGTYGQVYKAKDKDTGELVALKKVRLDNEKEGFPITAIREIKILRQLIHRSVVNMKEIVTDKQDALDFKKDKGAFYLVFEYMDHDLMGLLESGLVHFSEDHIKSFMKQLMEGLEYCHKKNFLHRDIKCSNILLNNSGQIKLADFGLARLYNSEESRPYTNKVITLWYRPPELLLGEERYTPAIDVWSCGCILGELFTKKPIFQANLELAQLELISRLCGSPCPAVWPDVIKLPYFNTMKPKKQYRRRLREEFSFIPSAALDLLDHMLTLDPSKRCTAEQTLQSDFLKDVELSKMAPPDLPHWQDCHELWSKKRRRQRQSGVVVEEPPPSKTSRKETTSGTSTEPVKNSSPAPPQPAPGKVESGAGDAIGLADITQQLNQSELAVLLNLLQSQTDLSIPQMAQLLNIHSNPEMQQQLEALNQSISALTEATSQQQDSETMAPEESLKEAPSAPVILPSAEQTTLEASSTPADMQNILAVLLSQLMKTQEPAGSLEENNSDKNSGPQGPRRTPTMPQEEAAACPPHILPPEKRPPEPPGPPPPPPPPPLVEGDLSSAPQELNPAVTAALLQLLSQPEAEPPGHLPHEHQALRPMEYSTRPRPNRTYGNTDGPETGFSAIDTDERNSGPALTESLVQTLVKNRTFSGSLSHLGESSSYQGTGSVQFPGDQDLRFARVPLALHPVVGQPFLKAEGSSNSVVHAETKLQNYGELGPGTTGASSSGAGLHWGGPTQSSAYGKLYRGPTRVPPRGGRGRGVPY
T1 sequence (O75909 whole entry partner): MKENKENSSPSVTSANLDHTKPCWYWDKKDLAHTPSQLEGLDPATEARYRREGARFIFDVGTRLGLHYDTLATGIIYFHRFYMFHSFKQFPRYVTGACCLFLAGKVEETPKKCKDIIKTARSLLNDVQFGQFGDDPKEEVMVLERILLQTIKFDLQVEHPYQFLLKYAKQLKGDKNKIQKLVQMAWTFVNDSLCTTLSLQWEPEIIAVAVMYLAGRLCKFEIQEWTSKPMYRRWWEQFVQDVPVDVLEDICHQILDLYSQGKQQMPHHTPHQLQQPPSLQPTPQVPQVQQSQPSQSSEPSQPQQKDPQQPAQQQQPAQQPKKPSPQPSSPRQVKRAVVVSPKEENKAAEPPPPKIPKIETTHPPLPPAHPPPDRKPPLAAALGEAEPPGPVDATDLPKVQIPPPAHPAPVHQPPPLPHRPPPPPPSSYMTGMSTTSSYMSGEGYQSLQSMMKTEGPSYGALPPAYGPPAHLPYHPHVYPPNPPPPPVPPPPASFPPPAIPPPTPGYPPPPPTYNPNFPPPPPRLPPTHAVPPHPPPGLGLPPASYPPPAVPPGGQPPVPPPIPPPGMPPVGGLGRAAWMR
Procedure for CDK7/CyclinH/Mat1: The purpose of this assay is to measure the ability of a compound of the invention to inhibit CDK7/CyclinH/Mat1 complex kinase activity.
The IC50 activity of the inhibitor is determined using radiolabel filter binding (FB) assays using the purified human recombinant enzyme in the presence of ATP//[3^3P]ATP and peptide substrate. The ATP concentrations chosen are at or near the enzyme Km for ATP.
Reactions are carried out in 96 well polystyrene plates in a final volume of 25 μL per well. 5 μL of test compound in 20% DMSO, 10 μL of substrate solution (ATP/33PATP and CDK7/9 tide) and 10 μL of enzyme solution are mixed. […] The enzyme solution is prepared for a final concentration of 1 nM CDK7/CyclinH/Mat1 enzyme [Proqinase 0366-0360-4 Lot 002)] diluted in kinase buffer. Test compounds are serially diluted 1:3 in 20% DMSO to create a 10 point curve at a starting concentration of 20 μM. 20% DMSO buffer alone without test compound is employed as high control (full activity in the absence of any inhibitor), 500 mM EDTA is used to determine the level of background in the absence of enzyme activity (low control). After mixing 5 μL of compounds with 10 μL of enzyme solution the plate is incubated for 0 or 180 minutes at 22° C. After that time the reaction is initiated by the addition of 10 μL substrate solution and incubated for 50 minutes at 22° C. The reaction is terminated by the addition of 80 μL of cold 10% ortophosphoric solution. The Filter Plates (opaque, non-sterile filter plates) are prewashed with 10 μL of 10% orthophosphoric solution to each well. 100 μL of the mixture are transferred to a phosphocellulose filter and incubated at room temperature for 45 minutes. Filter plates are washed with 200 μL 0.5% orthophosphoric acid 3 times on a filter plate processor. Incorporation of 33Pi (counting of “cpm”) is determined by adding 80 μL of MICROSCINT™ to each well and read on a counter after an hour. Data is processed through a [sequence] […] ® tool. Data are analyzed using a 4-parameter nonlinear logistic equation (four-parameter logistic concentration-response curve): Y=bot+[(top-bot)/1+(x/IC50)slope] where Y=% inhibition, X=concentration yielding y % inhibition, Bottom=minimum value of y attained by curve, Top=maximum value of y attained by curve and Slope=steepness of curve at IC50. % Inh=[(median Max−x/median Max−median Min)]·100
IC50: concentration of compound that reduces a given response (ligand binding, enzyme response) by 50%.
Procedure for CDK9/cyclinT1: The IC50 determination for CDK7 and CDK9 are determined as follows.
The IC50 activity of the inhibitor is determined using radiolabel filter binding (FB) assays using the purified human recombinant enzyme in the presence of ATP and peptide substrate. The ATP concentrations chosen are at or near the enzyme Km for ATP. Reactions are carried out in 96 well polystyrene plates in a final volume of 25 μL per well. 5 μL of test compound in 20% DMSO, 10 μL of substrate solution (ATP//[^33P]ATP and CDK7/9 tide) and 10 μL of enzyme solution are mixed. […] The enzyme solution is prepared for a final concentration of 7.5 nM CDK9/cyclinT1 enzyme [Proqinase 0371-0345-1 (Lot 004)] diluted in kinase buffer. Test compounds are serially diluted 1:3 in 20% DMSO to create a 10 point curve at a starting concentration of 2 μM. 20% DMSO buffer alone without test compound is employed as high control (full activity in the absence of any inhibitor), 500 mM EDTA is used to determine the level of background in the absence of enzyme activity (low control). After mixing 5 μL of compounds with 10 μL of enzyme solution the plate is incubated for 0 or 180 minutes at 22° C. After that time the reaction is initiated by the addition of 10 μL substrate solution and incubated for 60 minutes at 22° C. […] 80 μL of MICROSCINT™ is added to each well and read on a scintillation counter after an hour. […]

On to `Cc1cc(NC2CCN(C(=O)O[C@H]3CCN(C(=O)/C=C/CN(C)C)C3)CC2)n2ncc(C(C)C)c2n1` [Example 1, [(3S)-1-[(E)-4-(dimethylamino)but-2-enoyl]pyrrolidin-3-yl] 4-[(3-isopropyl-5-methyl-pyrazolo[1,5-a]pyrimidin-7-yl)amino]piperidine-1-carboxylate], for which the IC50 on CDK7/CyclinH/Mat1 (IC50 in CDK7, 3 hours of preincubation of CDK7 enzyme) was 2.37 nM; on CDK7/CyclinH/Mat1 (IC50 in CDK7, without preincubation) it was 17.3 nM; at CDK9/cyclinT1, 5.9 µM; at CDK12/CycK it was 14.8 µM; on CDK13/CycK it was at least 20 µM; in the experiment on DMS114 (Homo sapiens, DMS-114, 168 h, read-out: Anti-proliferation effect IC50), 14 nM. Besides, the IC50 with NCIH460 (Homo sapiens, NCI-H460, 168 h, read-out: Anti-proliferation effect IC50) stood at 47 nM; with SW1271 (SW1271, 168 h, read-out: Anti-proliferation effect IC50) it was 24 nM; in the experiment with LI7 (Li-7, 168 h, read-out: Anti-proliferation effect IC50) it was 132 nM. The “Anti-proliferation effect % Inh.” value in the experiment with DMS114 (DMS114, LUNG, 7 days) came out at 65%; with NCIH460 (NCIH460, LUNG, 7 days), 97%; with SW1271 (SW1271, LUNG, 7 days), 67%; with LI7 (LI7, LIVER, 7 days), 76%. Besides, the “Anti-proliferation effect Outcome” value in the experiment on DMS114 (DMS114, LUNG, 7 days) is “Cytostatic (cytostatic (IC50<1 μM and % inhibition <70%))”; in the experiment on NCIH460 (NCIH460, LUNG, 7 days) it was “Cytotoxic (cytotoxic (IC50<1 μM and % inhibition ≥70%))”; with SW1271 (SW1271, LUNG, 7 days), “Cytostatic (cytostatic (IC50<1 μM and % inhibition <70%))”; with LI7 (LI7, LIVER, 7 days), “Cytotoxic (cytotoxic (IC50<1 μM and % inhibition ≥70%))”.
